# According to patent publication US20110251160A1 (priority 2008, published 2011):
# Read-outs that look alike come from different tables or passages of the source. Marks after values point to notes of the source that are not given here.
# Legend:
# [1] = Physical properties of dabigatran etexilate; assay type: physicochemical
# [2] = system: patients with atrial fibrillation
# Description: PETRO-Ex began while the PETRO study was ongoing and investigators were initially kept blinded to patient treatment group until PETRO was completed. Unblinding investigators to patient treatment was possible thereafter.
# Data were summarized descriptively; no hypothesis was to be tested. Events were analyzed on the basis of the treatment at onset. Incidences were reported as number of patients with events as well as normalized to 100 patient years on the respective treatment.
# Patients who completed PETRO on 50 mg b.i.d. were switched to 150 mg q.d. upon entry in the PETRO-Ex study (N=93 patients). […] Patients who were down titrated to 50 mg q.d. based on a glomerular filtration rate ≦50 mL/min during PETRO were excluded from the long-term trial; patients down-titrated in other dose levels remained on the q.d. treatment at that dose.
# The former is represented by the number of thromboembolic events per 100 years, the latter by the number of bleeding events per 100 years.
# [3] = system: cytochrome P-450 drug metabolizing enzymes; experiment: Cytochrome P-450 interaction; assay type: in vitro ADME
# [4] = system: patients with chronic atrial fibrillation; experiment: PETRO study, phase 2 12-week dose finding study; assay type: in vivo, human
# Description: Primary endpoints were bleeding events and changes in D-dimer. […] Minor bleeding was dose related.
# [5] = Clinical pharmacokinetics and pharmacodynamics of dabigatran etexilate; conditions: in vivo
# [6] = 300 mg b.i.d., listed as dabigatran etexilate
# [7] = PETRO-Ex, Dabigatran etexilate All doses
# [8] = PETRO-Ex, including bleeding and thrombotic events
compound,measurement,setting,value
"CCCCCCOC(=O)NC(=N)c1ccc(NCc2nc3cc(C(=O)N(CCC(=O)OCC)c4ccccn4)ccc3n2C)cc1 [Dabigatran etexilate, 1-methyl-2-[N-[4-(N-n-hexyloxycarbonylamidino)phenyl]aminomethyl]benzimidazol-5-ylcarboxylic acid-N-(2-pyridyl)-N-(2-ethoxycarbonylethyl)amides]",Hygroscopicity,[1],hygroscopic
same,Solubility in water,[1],sparingly soluble in water
same,Adverse Events leading to premature discontinuation (rate),[2]; 50 mg b.i.d.,21.3 per 100 patient years
same,Other MACE (rate),[2]; 50 mg b.i.d.,8.5 per 100 patient years
same,Stroke and Systemic Thromboembolism (rate),[2]; 50 mg b.i.d.,12.8 per 100 patient years
same,Stroke and Systemic Thromboembolism (rate),"[2]; 50 mg b.i.d., listed as dabigatran etexilate",more than 12 per 100 patient years
same,ALT or AST >2xULN (rate),[2]; 150 mg b.i.d.,3.1 per 100 patient years
same,ALT or AST >3xULN (rate),[2]; 150 mg b.i.d.,1.9 per 100 patient years
same,ALT or AST >3xULN and Bili >2xULN within 30 days (rate),[2]; 150 mg b.i.d.,0.4 per 100 patient years
same,ALT or AST >5xULN (rate),[2]; 150 mg b.i.d.,1.0 per 100 patient years
same,Adverse Events leading to premature discontinuation (rate),[2]; 150 mg b.i.d.,9.8 per 100 patient years
same,"Fatal major bleeds, number",[2]; 150 mg b.i.d.,4
same,MI (rate),[2]; 150 mg b.i.d.,0.9 per 100 patient years
same,Major Bleeds (rate),[2]; 150 mg b.i.d.,4.2 per 100 patient years
same,"Major Bleeds, of these with aspirin (rate)",[2]; 150 mg b.i.d.,8.7 per 100 patient years
same,"Major Bleeds, of these without aspirin (rate)",[2]; 150 mg b.i.d.,3.2 per 100 patient years
same,Major bleeding events,[2]; 150 mg b.i.d.,4.2 % per year
same,Other MACE (rate),[2]; 150 mg b.i.d.,1.0 per 100 patient years
same,Stroke and Systemic Thromboembolism (rate),[2]; 150 mg b.i.d.,1.0 per 100 patient years
same,TIA (rate),[2]; 150 mg b.i.d.,0.1 per 100 patient years
same,Thromboembolic events and stroke rate,[2]; 150 mg b.i.d.,1 % per year
same,ALT or AST >2xULN (rate),[2]; 150 mg q.d.,3.4 per 100 patient years
same,Adverse Events leading to premature discontinuation (rate),[2]; 150 mg q.d.,13.7 per 100 patient years
same,Major Bleeds (rate),[2]; 150 mg q.d.,5.1 per 100 patient years
same,"Major Bleeds, of these without aspirin (rate)",[2]; 150 mg q.d.,6.5 per 100 patient years
same,Stroke and Systemic Thromboembolism (rate),[2]; 150 mg q.d.,5.1 per 100 patient years
same,Stroke and Systemic Thromboembolism (rate),"[2]; 150 mg q.d., listed as dabigatran etexilate",about 5 per 100 patient years
same,ALT or AST >2xULN (rate),[2]; 300 mg b.i.d.,4.9 per 100 patient years
same,ALT or AST >3xULN (rate),[2]; 300 mg b.i.d.,2.4 per 100 patient years
same,ALT or AST >5xULN (rate),[2]; 300 mg b.i.d.,1.2 per 100 patient years
same,Adverse Events leading to premature discontinuation (rate),[2]; 300 mg b.i.d.,25.6 per 100 patient years
same,Major Bleeds (rate),[2]; 300 mg b.i.d.,12.2 per 100 patient years
same,"Major Bleeds, of these with aspirin (rate)",[2]; 300 mg b.i.d.,32.7 per 100 patient years
same,"Major Bleeds, of these without aspirin (rate)",[2]; 300 mg b.i.d.,6.3 per 100 patient years
same,Major bleeding events,[2]; 300 mg b.i.d.,12.2 % per year
same,Other MACE (rate),[2]; 300 mg b.i.d.,1.2 per 100 patient years
same,Stroke and Systemic Thromboembolism (rate),[2]; 300 mg b.i.d.,1.2 per 100 patient years
same,Thromboembolic events and stroke rate,[2]; 300 mg b.i.d.,1.2 % per year
same,Major Bleeds (rate),[2]; [6],more than 12 per 100 patient years
same,Stroke and Systemic Thromboembolism (rate),[2]; [6],about 1 per 100 patient years
same,ALT or AST >2xULN (rate),[2]; 300 mg q.d.,1.5 per 100 patient years
same,ALT or AST >3xULN (rate),[2]; 300 mg q.d.,1.5 per 100 patient years
same,ALT or AST >3xULN and Bili >2xULN within 30 days (rate),[2]; 300 mg q.d.,0.5 per 100 patient years
same,ALT or AST >5xULN (rate),[2]; 300 mg q.d.,1.5 per 100 patient years
same,Adverse Events leading to premature discontinuation (rate),[2]; 300 mg q.d.,9.6 per 100 patient years
same,"Fatal major bleeds, number",[2]; 300 mg q.d.,1
same,MI (rate),[2]; 300 mg q.d.,0.5 per 100 patient years
same,Major Bleeds (rate),[2]; 300 mg q.d.,2.5 per 100 patient years
same,"Major Bleeds, of these with aspirin (rate)",[2]; 300 mg q.d.,3.6 per 100 patient years
same,"Major Bleeds, of these without aspirin (rate)",[2]; 300 mg q.d.,2.1 per 100 patient years
same,Major bleeding events,[2]; 300 mg q.d.,2.5 % per year
same,Other MACE (rate),[2]; 300 mg q.d.,0.5 per 100 patient years
same,Stroke and Systemic Thromboembolism (rate),[2]; 300 mg q.d.,2.5 per 100 patient years
same,Stroke and Systemic Thromboembolism (rate),"[2]; 300 mg q.d., listed as dabigatran etexilate",more than 2 per 100 patient years
same,Tolerability,[2]; 300 mg twice daily,not tolerable
same,Serious adverse events: cardiac disorders,[2]; PETRO-Ex,22%
same,"Serious adverse events: cardiac disorders, pts",[2]; PETRO-Ex,80
same,Serious adverse events: gastrointestinal disorders,[2]; PETRO-Ex,7.8%
same,"Serious adverse events: gastrointestinal disorders, pts",[2]; PETRO-Ex,28
same,Serious adverse events: infections,[2]; PETRO-Ex,9.4%
same,"Serious adverse events: infections, pts",[2]; PETRO-Ex,34
same,Serious adverse events: nervous system disorders,[2]; PETRO-Ex,9.1%
same,"Serious adverse events: nervous system disorders, pts",[2]; PETRO-Ex,33
same,Stroke and systemic embolism (per 100 patient years),"[2]; PETRO-Ex, Dabigatran etexilate 150 mg b.i.d.",1.0%
same,Major bleeding events (per 100 patient years),"[2]; PETRO-Ex, Dabigatran etexilate 150 mg b.i.d., without concomitant aspirin",3.2%*
same,LFT abnormalities >3 xULN (per 100 patient years),[2]; [7],1.7%
same,Myocardial Infarction,[2]; [7],0.7%
same,Serious adverse events,[2]; [8],51%
same,"Serious adverse events, patients",[2]; [8],184
same,ALT or AST >2xULN (rate),[2]; Total,2.9 per 100 patient years
same,ALT or AST >3xULN (rate),[2]; Total,1.7 per 100 patient years
same,ALT or AST >3xULN and Bili >2xULN within 30 days (rate),[2]; Total,0.4 per 100 patient years
same,ALT or AST >5xULN (rate),[2]; Total,1.1 per 100 patient years
same,Adverse Events leading to premature discontinuation (rate),[2]; Total,11.5 per 100 patient years
same,MI (rate),[2]; Total,0.7 per 100 patient years
same,Major Bleeds (rate),[2]; Total,4.2 per 100 patient years
same,"Major Bleeds, of these with aspirin (rate)",[2]; Total,8.5 per 100 patient years
same,"Major Bleeds, of these without aspirin (rate)",[2]; Total,3.2 per 100 patient years
same,Other MACE (rate),[2]; Total,1.1 per 100 patient years
same,Stroke and Systemic Thromboembolism (rate),[2]; Total,1.9 per 100 patient years
same,TIA (rate),[2]; Total,0.1 per 100 patient years
same,Concomitant bilirubin elevation >2×ULN within 30 days of transaminase elevations >3×ULN,[2]; all doses,0.4 % per year
same,"Elevated liver transaminases, AST or ALT >3×ULN",[2]; all doses,1.7 % per year
same,"Fatal intracranial bleeds, number",[2]; all doses,Three
same,"Fatal major bleeds, number",[2]; all doses,Five
same,Transaminases (AST or ALT) >5×ULN,[2]; all doses,1.1 % per year
same,Major bleed rate,[2]; doses ≦150 mg/day (150 mg q.d. combined with 50 mg b.i.d.),3.7 % per year
same,Bleeding event rate,[2]; on concomitant aspirin,8.5 % per year
same,Stroke or systemic thromboembolic event rates,[2]; the two highest doses,approximately 1 % per year
same,Bleeding event rate,[2]; without concomitant aspirin,3.2 % per year
same,Annualized thromboembolic event rate,[2]; ≦150 mg/day,over 5.0 per 100 patient years
same,"Metabolism by, induction or inhibition of cytochrome P-450",[3],not metabolized by and does not induce or inhibit cytochrome P-450 drug metabolizing enzymes
same,"Systemic thromboembolic events, number",[4]; 50 mg b.i.d. group,2
same,Major bleeding events,[4]; 300 mg b.i.d. plus ASA groups,6%
same,"Major bleeding events, number",[4]; 300 mg b.i.d. plus ASA groups,Four
same,Minor bleeding,"[4]; 50, 150 and 300 mg b.i.d.",dose related
same,Elevated transaminases >3×upper limit of normal (ULN),"[4]; dabigatran etexilate-treated patients, all doses",0.9%
same,"Elevated transaminases >3×upper limit of normal (ULN), number of patients",[4]; of 432 dabigatran etexilate-treated patients,4
same,Food interactions,[5],no food interactions
